Counter-ions that a name gives are not always drawn. Like-named read-outs stand apart in the source and are kept apart here.
Target: T1, menin and MLL (menin, Flag tagged; biotinylated MLL1 peptide 1-46aa) (Homo sapiens, UniProt O00255)
T1 sequence (O00255 1-610): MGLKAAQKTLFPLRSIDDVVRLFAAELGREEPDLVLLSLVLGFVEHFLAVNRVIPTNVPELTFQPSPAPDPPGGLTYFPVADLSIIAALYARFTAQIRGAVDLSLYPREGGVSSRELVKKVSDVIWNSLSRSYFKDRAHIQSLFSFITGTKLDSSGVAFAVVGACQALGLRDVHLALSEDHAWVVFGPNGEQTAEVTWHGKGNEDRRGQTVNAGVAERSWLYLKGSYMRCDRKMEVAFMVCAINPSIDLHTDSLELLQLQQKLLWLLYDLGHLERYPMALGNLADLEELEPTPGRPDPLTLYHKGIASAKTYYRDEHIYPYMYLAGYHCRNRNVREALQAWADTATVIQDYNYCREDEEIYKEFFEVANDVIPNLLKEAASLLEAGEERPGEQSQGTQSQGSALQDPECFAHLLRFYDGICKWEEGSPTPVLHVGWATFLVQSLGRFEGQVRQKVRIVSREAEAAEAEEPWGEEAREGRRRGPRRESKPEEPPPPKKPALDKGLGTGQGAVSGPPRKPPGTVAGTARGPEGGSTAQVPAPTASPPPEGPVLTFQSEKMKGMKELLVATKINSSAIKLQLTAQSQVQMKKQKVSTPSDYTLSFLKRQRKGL
Test: biochemical

[1] = IC50, binding inhibitory activity between menin and MLL, AlphaLISA, 1 nM menin, 10 nM biotinylated MLL1 peptide

Protocol: Then, the fluorescence signal by AlphaLISA (registered trademark, PerkinElmer Co., Ltd.) was measured using a plate reader (PerkinElmer Co., Ltd., EnVisionXcite).

**Q.** How did the IC50 [1] turn out when `CN(c1ncnc2sc(CC(F)(F)F)cc12)[C@@H]1CC[C@H](NCc2ccc(-c3cnc4c(c3)OCCO4)cc2)C1` [Example 63, (1R,3S)-N^3-{[4-(2,3-dihydro[l,4]dioxino[2,3-b]pyridin-7-yl)phenyl]methyl}-N^1-methyl-N^1-[6-(2,2,2-trifluoroethyl)thieno[2,3-d]pyrimidin-4-yl]cyclopentane-1,3-diamine hydrochloride] was run?
**A.** 19.9 nM

**Q.** For `CNc1nc(N(C)[C@H]2C[C@@H](NCc3ccc(-c4cncc5c4ccn5S(C)(=O)=O)cc3)C[C@H]2O)c2cc(CC(F)(F)F)sc2n1` [Example 64, (1R,2S,4R)-4[({4-[1-(methanesulfonyl)-1H-pyrrolo[2,3-c]pyridin-4yl]phenyl}methyl)amino]-2-{methyl[2-(methylamino)-6-(2,2,2trifluoroethyl)thieno[2,3-d]pyrimidin-4-yl]amino}cyclopentan-1-ol hydrochloride], which IC50 [1] is on record?
**A.** 2.2 nM

**Q.** With `COc1cc(-c2ccc(CN[C@H]3C[C@@H](O)[C@@H](N(C)c4ncnc5sc(CC(F)(F)F)cc45)C3)cc2)cnc1Cl` [Example 65, (1R,2S,4R)-4({[4-(6-chloro-5-methoxypyridin-3-yl)phenyl]methyl}amino)-2{methyl[6-(2,2,2-trifluoroethyl)thieno[2,3-d]pyrimidin-4-yl]amino}cyclopentan-1-ol hydrochloride] as the compound, how does the IC50 [1] read?
**A.** 2.5 nM

**Q.** Which IC50 [1] does the source give for `CNC(=O)c1cccc(-c2ccc(CN[C@H]3CC[C@@H](N(C)c4ncnc5sc(CC(F)(F)F)cc45)C3)cc2)c1` [Example 66, N-methyl-4′-({[|(1S,3R)-3-{methyl[6-(2,2,2-trifluoroethyl)thieno[2,3-d]pyrimidin-4-yl]amino}cyclopentyl]amino}methyl)[1,1′-biphenyl]-3-carboxamide hydrochloride] here?
**A.** 6.7 nM

**Q.** Which IC50 [1] does the source give for `CNc1nc(N(C)[C@H]2C[C@@H](NCc3ccc(-c4cccc(S(=O)(=O)N(C)C)c4)cc3)C[C@H]2O)c2cc(CC(F)(F)F)sc2n1` [Example 69, 4′-({[(1R,3R,4S)-3-hydroxy-4-{methyl[2-(methylamino)-6-(2,2,2-trifluoroethyl)thieno[2,3-d]pyrimidin-4-yl]amino}cyclopentyl]amino}methyl)-N,N-dimethyl[1,1′-biphenyl]-3-sulfonamide hydrochloride] here?
**A.** 2.8 nM

**Q.** `CN(c1ncnc2sc(CC(F)(F)F)cc12)[C@H]1C[C@@H](NCc2ccc(-c3cnc(Cl)c4cc[nH]c34)cc2)C[C@H]1O` [Example 70, (1R,2S,4R)-4-({[4-(4-chloro-1H-pyrrolo[3,2-c]pyridin-7-yl)phenyl]methyl}amino)-2-{methyl[6-(2,2,2-trifluoroethyl)thieno[2,3-d]pyrimidin-4-yl]amino}cyclopentan-1-ol hydrochloride] was tested. Which IC50 [1] did it give?
**A.** 3.8 nM

**Q.** Which IC50 [1] does the source give for `CN(c1ncnc2sc(CC(F)(F)F)cc12)[C@H]1C[C@@H](NCc2ccc(-c3cccc(N(C)S(C)(=O)=O)c3)cc2)C[C@H]1O` [Example 71, N-[4′-({[(1R,3R,4S)-3-hydroxy-4-{methyl[6-(2,2,2-trifluoroethyl)thieno[2,3-d]pyrimidin-4-yl]amino}cyclopentyl]amino}methyl)[1,1′-biphenyl]-3-yl]-N-methylmethanesulfonamide hydrochloride] here?
**A.** 0.6 nM

**Q.** For `CN(c1ncnc2sc(CC(F)(F)F)cc12)[C@H]1C[C@@H](NCc2ccc(-c3cncc4c3cnn4C)cc2)C[C@H]1O` [Example 72, (1R,2S,4R)-4-({[4-(1-methyl-1H-pyrazolo[3,4-c]pyridin-4-yl)phenyl]methyl}amino)-2-{methyl[6-(2,2,2-trifluoroethyl)thieno[2,3-d]pyrimidin-4-yl]amino}cyclopentan-1-ol hydrochloride], which IC50 [1] is on record?
**A.** 10.7 nM

**Q.** Which IC50 [1] does the source give for `CNc1nc(N(C)[C@H]2C[C@@H](NCc3ccc(-c4cnc(OC)c(OC)c4)cc3)C[C@H]2O)c2cc(CC(F)(F)F)sc2n1` [Example 73, (1R,2S,4R)-4-({[4-(5,6-dimethoxypyridin-3-yl)phenyl]methyl}amino)-2-{methyl[2-(methylamino)-6-(2,2,2-trifluoroethyl)thieno[2,3-d]pyrimidin-4-yl]amino}cyclopentan-1-ol hydrochloride] here?
**A.** 6.5 nM

**Q.** With `COc1cc(-c2ccc(CN[C@H]3C[C@@H](O)[C@@H](N(C)c4ncnc5sc(CC(F)(F)F)cc45)C3)cc2F)cnc1F` [Example 74, (1R,2S,4R)-4-({[3-fluoro-4-(6-fluoro-5-methoxypyridin-3-yl)phenyl]methyl}amino)-2-{methyl[6-(2,2,2-trifluoroethyl)thieno[2,3-d]pyrimidin-4-yl]amino}cyclopentan-1-ol hydrochloride] as the compound, how does the IC50 [1] read?
**A.** 6.5 nM

**Q.** Which IC50 [1] does the source give for `CNc1nc(N(C)[C@H]2C[C@@H](NCc3ccc(-c4cc(F)cc(OC)c4)cc3)C[C@H]2O)c2cc(CC(F)(F)F)sc2n1` [Example 75, (1R,2S,4R)-4-{[(3′-fluoro-5′-methoxy[1,1′-biphenyl]-4-yl)methyl}amino}-2-{methyl[2-(methylamino)-6-(2,2,2-trifluoroethyl)thieno[2,3-d]pyrimidin-4-yl]amino}cyclopentan-1ol hydrochloride] here?
**A.** 17.2 nM

**Q.** `COc1cc(-c2ccc(CN[C@H]3C[C@@H](O)[C@@H](N(C)c4ncnc5sc(CC(F)(F)F)cc45)C3)c(F)c2)cnc1OC` [Example 76, (1R,2S,4R)-4-({[4-(5,6-dimethoxypyridin-3-yl)-2-fluorophenyl]methyl}amino)-2-{methyl[6-(2,2,2-trifluoroethyl)thieno[2,3-d]pyrimidin-4-yl]amino}cyclopentan-1-ol hydrochloride] was tested. Which IC50 [1] did it give?
**A.** 8.6 nM

**Q.** Which IC50 [1] does the source give for `COc1cc(-c2cnc(OC)c(OC)c2)ccc1CN[C@H]1C[C@@H](O)[C@@H](N(C)c2ncnc3sc(CC(F)(F)F)cc23)C1` [Example 77, (1R,2S,4R)-4-({[4-(5,6-dimethoxypyridin-3-yl)-2-methoxyphenyl]methyl}amino)-2-{methyl[6-(2,2,2-trifluoroethyl)thieno[2,3-d]pyrimidin-4-yl]amino}cyclopentan-1-ol hydrochloride] here?
**A.** 10.4 nM

**Q.** `COc1cc(-c2ccc(CN[C@H]3C[C@@H](O)[C@@H](N(C)c4ncnc5sc(CC(F)(F)F)cc45)C3)c(C)c2)cnc1OC` [Example 78, (1R,2S,4R)-4-({[4-(5,6-dimethoxypyridin-3-yl)-2-methylphenyl]methyl}amino)-2-{methyl[6-(2,2,2-trifluoroethyl)thieno[2,3-d]pyrimidin-4-yl]amino}cyclopentan-1-ol hydrochloride] was tested. Which IC50 [1] did it give?
**A.** 8.5 nM

**Q.** With `CN(c1ncnc2sc(CC(F)(F)F)cc12)[C@H]1C[C@@H](NCc2ccc(-n3cnc4ccccc43)cc2)C[C@H]1O` [Example 79, (1R,2S,4R)-4-({[4-(1H-benzimidazol-yl)phenyl]methyl}amino)-2-{methyl[6-(2,2,2-trifluoroethyl)thieno[2,3-d]pyrimidin-4-yl]amino}cyclopentan-1-ol hydrochloride] as the compound, how does the IC50 read?
**A.** 3.5 nM

**Q.** How did the IC50 turn out when `CCOc1cc(-c2ccc(CN[C@H]3C[C@@H](O)[C@@H](N(C)c4ncnc5sc(CC(F)(F)F)cc45)C3)cc2)cnc1OC` [Example 80, (1R,2S,4R)-4-({[4-(5-ethoxy-6-methoxypyridin-3-yl)phenyl]methyl}amino)-2-{methyl[6-(2,2,2-trifluoroethyl)thieno[2,3-d]pyrimidin-4-yl]amino}cyclopentan-1-ol hydrochloride] was run?
**A.** 15.4 nM

**Q.** For `COc1nc(N(C)[C@H]2C[C@@H](NCc3ccc(-c4cnc(OC)c(OC)c4)cc3)C[C@H]2O)c2cc(CC(F)(F)F)sc2n1` [Example 81, (1R,2S,4R)-4-({[4-(5,6-dimethoxypyridin-3-yl)phenyl]methyl}amino)-2-{[2-methoxy-6-(2,2,2-trifluoroethyl)thieno[2,3-d]pyrimidin-4-yl](methyl)amino}cyclopentan-1-ol hydrochloride], which IC50 [1] is on record?
**A.** 6.1 nM

Reference: patent publication US11236106B2, “Cycloalkane-1,3-diamine derivative” (Daiichi Sankyo Company, Limited, priority 2018, dated 2022)
